Experiments:
Assay in all cases: relative viability (nuclei count vs DMSO), 5 days (fraction); higher = more cells survive
[1] = compound: C1COCCN1CC2=CC(=O)C(=CO2)OCCCCCSC3=C4C=CC(=CC4=NC=C3)C(F)(F)F [EHT 1864] + C[C@@H](Oc1cc(-c2cnn(C3CCNCC3)c2)cnc1N)c1c(Cl)ccc(F)c1Cl [Crizotinib] (partner 1 µM)
Method in brief: (§1)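 Values are medians from duplicate plates. Each reflects relative viability, defined as the nuclei count of treated wells over that of vehicle wells. Lung cancer cell lines in 1536-well plates were pin-tool dosed one day after seeding with one drug alone or with a fixed anchor-drug dose plus five library-drug doses (not always all listed) in √10 steps, then fixed, stained and imaged at 4× after 5 days.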

[2] = compound: C1COCCN1CC2=CC(=O)C(=CO2)OCCCCCSC3=C4C=CC(=CC4=NC=C3)C(F)(F)F [EHT 1864] + CS(=O)(=O)N1CCN(Cc2cc3nc(-c4cccc5[nH]ncc45)nc(N4CCOCC4)c3s2)CC1 [Pictilisib] (partner 1 µM)
Method in brief: as §1

[3] = compound: C1COCCN1CC2=CC(=O)C(=CO2)OCCCCCSC3=C4C=CC(=CC4=NC=C3)C(F)(F)F [EHT 1864] + Cc1nc(Nc2ncc(C(=O)Nc3c(C)cccc3Cl)s2)cc(N2CCN(CCO)CC2)n1 [Dasatinib] (partner 0.075 µM)
Method in brief: as §1

[4] = compound: C1COCCN1CC2=CC(=O)C(=CO2)OCCCCCSC3=C4C=CC(=CC4=NC=C3)C(F)(F)F [EHT 1864] + O=C(CCCCCCC(=O)Nc1ccccc1)NO [Vorinostat] (partner 1 µM)
Method in brief: as §1

Row | Cell Line | relative viability ([1]; first compound 0.04 µM) | relative viability ([1]; first compound 0.4 µM) | relative viability ([1]; first compound 1.265 µM) | relative viability ([1]; first compound 4 µM) | relative viability ([2]; first compound 0.04 µM) | relative viability ([2]; first compound 0.4 µM) | relative viability ([2]; first compound 1.265 µM) | relative viability ([2]; first compound 4 µM) | relative viability ([3]; first compound 0.04 µM) | relative viability ([3]; first compound 0.1265 µM) | relative viability ([3]; first compound 0.4 µM) | relative viability ([3]; first compound 1.265 µM) | relative viability ([3]; first compound 4 µM) | relative viability ([4]; first compound 0.04 µM) | relative viability ([4]; first compound 0.1265 µM) | relative viability ([4]; first compound 0.4 µM) | relative viability ([4]; first compound 1.265 µM) | relative viability ([4]; first compound 4 µM) | relative viability ([1]; first compound 0.1265 µM) | relative viability ([2]; first compound 0.1265 µM)
1 | NCI-H650 | 0.71 | 0.805 | 0.7 | 0.698 | 0.915 | 0.941 | 0.895 | 0.847 | 0.427 | 0.381 | 0.427 | 0.459 | 0.459 | 0.497 | 0.308 | 0.413 | 0.457 | 0.478 |  | 
2 | NCI-H661 | 1.03 | 0.882 | 0.85 | 0.879 | 0.403 | 0.481 | 0.437 | 0.415 | 0.883 | 0.828 | 0.919 | 0.8 | 0.725 | 0.836 | 0.685 | 0.773 | 0.697 | 0.712 | 1.03 | 0.435
3 | NCI-H727 | 0.803 | 0.699 |  | 0.786 | 0.482 | 0.419 |  | 0.458 | 0.397 | 0.334 | 0.344 | 0.371 | 0.343 | 1.47 | 1.31 | 1.07 | 1.26 | 1.29 | 0.713 | 0.353
4 | NCI-H838 | 0.74 | 0.911 | 0.826 | 0.802 | 0.501 | 0.548 | 0.435 | 0.428 | 0.207 | 0.252 | 0.304 | 0.277 | 0.269 | 0.713 | 0.668 | 0.74 | 0.723 | 0.727 | 0.724 | 0.353
5 | NCI-H1355 | 1.12 | 1.06 | 1.07 | 1.03 | 0.423 | 0.412 | 0.445 | 0.475 | 0.676 | 0.535 | 0.73 | 0.561 | 0.725 | 0.659 | 0.548 | 0.633 | 0.619 | 0.696 | 0.875 | 0.385
6 | NCI-H1437 | 0.87 | 0.845 | 0.838 | 0.642 | 0.438 | 0.418 | 0.492 | 0.397 | 0.453 | 0.387 | 0.342 | 0.235 | 0.248 | 0.84 | 0.866 | 0.757 | 0.542 | 0.479 | 0.918 | 0.47
7 | NCI-H1650 | 0.857 | 0.947 | 0.911 | 1.15 | 0.597 | 0.579 | 0.548 | 0.442 |  |  | 0.36 | 0.271 | 0.377 | 0.529 | 0.54 | 0.592 | 0.623 | 0.521 | 0.653 | 0.351
8 | NCI-H1651 | 0.865 | 0.826 | 0.801 | 0.843 | 0.537 | 0.555 | 0.563 | 0.492 | 0.407 | 0.425 | 0.332 | 0.37 | 0.471 | 0.55 | 0.541 | 0.554 | 0.561 | 0.599 | 0.798 | 0.562
